Results from article PMC5663397, “A composite docking approach for the identification and characterization of ectosteric inhibitors of cathepsin K” (PLoS ONE, 2017).
Where “and” joins values, the source holds several entries; their conditions need not be identical. Identical values can stand only once. Entries after “also recorded” stand apart in the source; their conditions may differ. Counter-ions that a name gives are not always drawn. Like-named read-outs stand apart in the source and are kept apart here. Blank lines part the entries; values can stand above or below the molecule they belong to.

Tests used:
Yeast = system: Yeast; set-up: method as in earlier work; settings: cited from earlier work
MMP-1 [1] = target: T1, MMP-1 (Homo sapiens, UniProt P03956); assay: Collagen digestion with MMP-1; type: biochemical; settings: 50 μM inhibitor, 400 nM MMP-1
T1 sequence (P03956 100-469): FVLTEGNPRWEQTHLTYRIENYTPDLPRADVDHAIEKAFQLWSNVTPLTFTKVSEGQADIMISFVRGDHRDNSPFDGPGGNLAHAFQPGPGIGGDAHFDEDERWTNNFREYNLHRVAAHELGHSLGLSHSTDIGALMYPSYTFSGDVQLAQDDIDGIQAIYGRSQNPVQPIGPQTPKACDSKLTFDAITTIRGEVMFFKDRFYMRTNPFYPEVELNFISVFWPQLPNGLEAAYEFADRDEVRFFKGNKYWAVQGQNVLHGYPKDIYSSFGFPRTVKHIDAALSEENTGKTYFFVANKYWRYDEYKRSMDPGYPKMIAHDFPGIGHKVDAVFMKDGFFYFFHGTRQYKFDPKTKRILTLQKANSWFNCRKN
Procedure: (§1) Digestion with MMP-1 was performed in 50 mM Tris-HCl, pH 7.4, containing 200 mM NaCl and 5 mM CaCl2 at 28°C for 4 h. Reactions were stopped by adding 25 mM EDTA as previously described. Samples were analyzed using 10% SDS-PAGE gels and stained with Coomassie. The resulting bands of α-collagen chains were quantitatively assessed using ImageJ (Version 1.5) and IC50 graphs were plotted using GraphPad Prism (GraphPad Software, Version 5.0, La Jolla California USA).

human osteoclasts [2] = assay: Osteoclast survival: CellTiter-Blue metabolic activity and osteoclast count after TRAcP staining; type: cell-based
Procedure: (§2) Osteoclasts were generated from mononuclear cells isolated from human bone marrow tissue (Lonza, Walkersville, MD). The bone marrow cells were centrifuged at 400 g for 5 min and the pellet was re-suspended in 10 mL α-MEM (α-Minimal Essential Media) and layered on 10 ml Ficoll-Plaque media solution. After centrifugation at 500 g for 30 min, the white interface containing the monocytes was harvested and washed twice with α-MEM. Cells were cultured in α-MEM containing 10% FBS and 25 ng/mL M-CSF for 24 hours and then cultured in 25 ng/mL RANKL and 25 ng/mL M-CSF for 7 days. Differentiated osteoclasts (100,000 cells per slice) were then seeded on each bone slice (5.5 mm diameter and 0.4 mm thickness; self-made) in the presence or absence of inhibitors and incubated for 72 hours at 5% CO2 and 37°C with the DMSO concentration at 0.1%. The inhibitor concentration range tested varied between 50 nM to 3 μM.
(§3) To compare the effects of the compounds on cell survival, the metabolic activity of osteoclasts was determined using the CellTiter-Blue Viability Assay (Promega, Madison, WI, USA). Bone slices from each condition (inhibitor-treated and control groups) were fixed in 4% formaldehyde and subsequently stained for tartrate-resistant acid phosphatase (TRAcP) activity (Acid Phosphatase, Leukocyte (TRAP) Kit; Sigma-Aldrich). Aliquots from cell culture media were used to determine the CTx-I concentration (MyBiosource ELISA kit, San Diego, CA). CTx-I is a CatK-specific C-terminal cleavage product of triple helical type I collagen. The total number of osteoclasts per bone slice was determined after TRAcP staining. Cells with ≥2 nuclei were counted as osteoclasts. After 72 h, bone slices from each condition were incubated in filtered water for cell lysis and cells were removed using a cotton stick. Subsequently the resorption cavities were stained with toluidine blue and observed by light microscopy. The number of resorption events and eroded bone surface area were determined as previously described. All light microscopic analyses were performed using a Nikon Eclipse LV100 microscope and a Nikon Eclipse Ci microscope.

human osteoclasts [3] = assay: Human osteoclast bone resorption assay on bone slices; type: cell-based; settings: for IC50: human osteoclasts on bone slices, read-out: IC50 for inhibition of trench eroded surface per bone surface (bone resorption)
Procedure: as §2, §3

CatK [4] = target: T2, CatK (Homo sapiens, UniProt P43235); assay: CatK collagenase assay (type I collagen degradation, SDS-PAGE); type: biochemical
T2 construct: made in house; host or cells: Pichia pastoris
T2 sequence (P43235 115-329): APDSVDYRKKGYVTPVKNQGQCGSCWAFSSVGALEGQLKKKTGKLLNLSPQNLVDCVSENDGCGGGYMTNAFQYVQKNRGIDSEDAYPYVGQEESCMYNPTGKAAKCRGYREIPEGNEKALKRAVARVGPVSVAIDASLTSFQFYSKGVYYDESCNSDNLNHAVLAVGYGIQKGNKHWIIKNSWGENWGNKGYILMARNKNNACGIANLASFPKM
Procedure: The collagenase inhibitory activities of all identified compounds were measured using a collagen degradation assay. Soluble bovine type I collagen (0.6 mg/mL) was incubated with 400 nM recombinant human CatK, in the presence or absence of 200 nM chondroitin 4-sulfate (C4-S) in 100 mM sodium acetate buffer, pH 5.5, containing 2.5 mM dithiothreitol (DTT) (Sigma-Aldrich Canada, Oakville, Ontario, Canada) and 2.5 mM ethylenediametetraacetate (EDTA) (Sigma-Aldrich). In the experiments involving detergent to minimize inhibitor aggregation, 0.001% or 0.005% Triton X-100 was added to the buffer with the inhibitor. The recombinant human CatK was expressed in Pichia pastoris and purified as previously described. Selected compounds identified by molecular docking were ordered from the National Cancer Institute through the Developmental Therapeutics Program (Rockville, MD). All compounds were dissolved in DMSO as a 20 or […] stock. […] After incubation at 28°C for 4 hours, 1 μM of E-64 was added to block the residual activity of CatK.
as §1

MMP-1 [5] = target: T1, MMP-1; assay: Gelatin degradation assay with MMP-1; type: biochemical; settings: 50 μM inhibitor, 10 nM MMP-1
Procedure: Gelatin (0.6 mg/mL) degradation assays were performed in the same manner as the collagen degradation experiments with 10 nM enzyme and were incubated at 37°C for one hour at the appropriate pH values for the individual proteases (CatK, pH 5.5; MMP-1, pH 7.4; trypsin, pH 8.8).

CatK [6] = target: T2, CatK; assay: Z-Phe-Arg-MCA cleavage assay with CatK; type: biochemical; settings: 100 μM inhibitor, 5 nM CatK, 5 μM substrate, pH 5.5
Procedure: (§4) The enzymatic activity of CatK was monitored by measuring the rate of release of the fluorogenic group, amino-methyl coumarin at an excitation wavelength of 380 nm and an emission wavelength of 450 nm using a Molecular Devices SpectraMax Gemini spectrofluorometer. Inhibitors were added prior to measurement of enzyme activity. The assays were performed at 25°C at a fixed enzyme concentrations (5 nM) and substrate concentration (5 μM) in 100 mM sodium acetate buffer, pH 5.5, containing 2.5 mM DTT and 2.5 mM EDTA. Z-Phe-Arg-MCA hydrolysis with trypsin was carried out in 50 mM Tris-HCl, pH 8.8 at 10 nM enzyme concentration.

trypsin = assay: Z-Phe-Arg-MCA hydrolysis with trypsin; type: biochemical; settings: 50 μM (5,000-times molar excess)
Procedure: as §4, with “Evaluation of a potential active site inhibition of the compounds was performed using the fluorogenic Benzyloxycarbonyl-Phe-Arg-7-amido-4-methylcoumarin (Z-Phe-Arg-MCA) substrate (Bachem Americas, Inc, Torrance, California, USA) as previously described. The enzymatic” for “The enzymatic”

human osteoclasts [7] = settings: cited from earlier work
ovariectomiced mice = system: ovariectomiced mice; set-up: method as in PMID 28745432; settings: cited from earlier work
[8] = 1 μM inhibitor, 72 h, versus untreated
[9] = 400 nM CatK, soluble bovine type I collagen 0.6 mg/mL, pH 5.5, 28°C, 4 h, read-out: Collagenase IC50

Compound: CCc1cc2nc3c(=O)[nH]c(=O)nc-3n(CCN(CCO)CCO)c2cc1CC [compound 1, 10-[2-[bis(2-hydroxyethyl)amino]ethyl]-7,8-diethylbenzo[γ]pteridine-2,4-dione]
- activity in NCI Yeast Anticancer Drug Screen (Yeast): active
- inhibitory activity towards the collagenase activity of MMP-1 (MMP-1 [1]): no inhibitory activity; also recorded: did not show inhibition
- Metabolic activity of osteoclasts (human osteoclasts [2]; CellTiter-Blue, compared with untreated cells): no significant differences
- number of osteoclasts (human osteoclasts [2]; TRAcP staining, compared with untreated cells): no significant differences
- cell toxicity (human osteoclasts [2]; osteoclast bone resorption assays): no cell toxicity effects
- Number of trenches (human osteoclasts [3]; [8]): significant reduction
- percentage of eroded surface area / total eroded surface (human osteoclasts [3]; [8]): very effective in reducing the total eroded surface; also recorded: significant reduction
- IC50 (human osteoclasts [3]; Homo sapiens, Osteoclast, 72 h, 72 h): ~0.3 µM
- IC50 (human osteoclasts [3]; 72 h): 0.312 ± 0.063 µM
- overall potency, times lower than odanacatib (human osteoclasts [3]; osteoclast resorption assay, versus odanacatib): 15–20 times
- IC50 (CatK [4]; [9]): < 20 µM and 4.7 µM and ~5 µM
- IC50 (CatK [4]; Collagenase IC50 with 0.005% Triton X-100, in the presence of detergent, 0.005% Triton X-100): 5.1 ± 1 µM
- Collagenase IC50 with 0.005% Triton X-100 (CatK [4]; in the presence of detergent, 0.005% Triton X-100): not significantly different
- inhibitory activity for the gelatinase activity of MMP-1 (MMP-1 [5]): no inhibitory activity; also recorded: did not show inhibition
- inhibition at 100 µM (CatK [6]): 9.5 ± 2.6%

Compound: CN(C)CCNc1ccc2ncn3c4ccc(O)cc4c(=O)c1c23 [compound 2, 2-((8-hydroxy-6-oxo-6H-imidazo[4,5,1-de]acridin-5-yl)amino)-N,N-dimethylethanaminium]
- IC50 (CatK [4]; [9]): < 20 µM and 7.6 µM
- inhibition at 100 µM (CatK [6]): 6.1 ± 3.9%

Compound: CCN(CC)CCNc1ccc2ncn3c4ccccc4c(=O)c1c23 [compound 5, 5-{[2-(diethylamino)ethyl]amino}-6H-imidazo[4,5,1-de]acridin-6-one hydrochloride (1:1)]
- IC50 (CatK [4]; [9]): < 20 µM and 13 µM
- inhibition at 100 µM (CatK [6]): 3.7 ± 0.7%

Compound: Cc1c2c(c(O)c3c(O)cccc13)C(=O)C1(O)C(=O)C(C(N)=O)C(O)C(N(C)C)C1C2 (stereo not shown) [compound 6, 4-(dimethylamino)-3,10,11,12a-tetrahydroxy-6-methyl-1,12-dioxo-3,4,4a,5-tetrahydro-2H-tetracene-2-carboxamide]
- IC50 (CatK [4]; [9]): ~35 µM and 34.8 µM
- inhibition of Z-Phe-Arg-MCA degradation by trypsin (trypsin): 60%
- inhibition at 100 µM (CatK [6]): 11.5 ± 2.6%

Compound: CCN(CC)CC1=C/C(=N/NC2=C3C=CC(=O)C(NNc4ccc(O)c(CN(CC)CC)c4)=C3C=CC2=O)C=CC1=O.Cl [compound 9, 1-[2-[3-(diethylaminomethyl)-4-hydroxyphenyl]hydrazinyl]-5-[(2E)-2-[3-(diethylaminomethyl)-4-oxocyclohexa-2,5-dien-1-ylidene]hydrazinyl]naphthalene-2,6-dione hydrochloride]
- activity in NCI Yeast Anticancer Drug Screen (Yeast): active
- IC50 (CatK [4]; [9]): < 20 µM
- inhibition at 100 µM (CatK [6]): 3.2 ± 0.8%

Compound: CC(C)(F)C[C@H](N[C@@H](c1ccc(-c2ccc(S(C)(=O)=O)cc2)cc1)C(F)(F)F)C(=O)NC1(C#N)CC1 [odanacatib]
- IC50 (human osteoclasts [7]; read-out: IC50 for human-osteoclast-mediated bone resorption): 0.0146 µM

Compound: Cc1c(S(=O)(=O)O)oc2c1C(=O)C(=O)c1c-2ccc2c1CCCC2(C)C [tanshinone IIA sulfonate]
- efficacy in ovariectomiced mice (ovariectomiced mice): showed efficacy
- IC50 (human osteoclasts [7]; read-out: IC50 in osteoclast resorption assay): 0.24 µM

Further lines, results first:

- IC50 (CatK [4]; [9]): < 20 µM and 9.9 µM
- inhibition at 100 µM (CatK [6]): 2.3 ± 0.9%
Compound: CCc1nc2ccc(NCCN(C)C)c3c(=O)c4ccccc4n1c23 [compound 4, 5-(2-(dimethylamino)ethylamino)-1-ethyl-6H-imidazo[4,5,1-de]acridin-6-one]

- IC50 (CatK [4]; [9]): 12.8 µM and < 20 µM
- inhibition at 100 µM (CatK [6]): 7.2 ± 3.6%
Compound: O=C(Nc1cccc(C(=O)Nc2cccc(C3=NCCN3)c2)c1)Nc1cccc(C(=O)Nc2cccc(C3=NCCN3)c2)c1 [compound 8, N-[3-(4,5-dihydro-1H-imidazol-2-yl)phenyl]-3-[[3-[[3-(4,5-dihydro-1H-imidazol-2-yl)phenyl]carbamoyl]phenyl]carbamoylamino]benzamide hydrochloride]

- IC50 (CatK [4]; [9]): 89 µM
Compound: CC1CN=C(c2cccc(NC(=O)c3ccc(C(=O)Nc4cccc(C5=NCC(C)N5)c4)c(N)c3)c2)N1 (stereo not shown) [compound 80116]

- IC50 (CatK [4]; [9]): 88 µM
Compound: CSCCC(NCC(N)Cc1ccc2ccccc2c1)C(=O)NCc1cccc(C(=O)NC(CNC(CC(C)C)C(=O)O)Cc2ccccc2)c1 (stereo not shown) [compound 719315]
